Assay results reported in patent publication US20240108654A1, “COMBINATION OF A T CELL THERAPY AND A DGK INHIBITOR” (Juno Therapeutics, Inc., priority 2021, published 2024).

Tests used:
Assay type in all cases: cell-based, human
[1] = system: anti-HPV16 eTCR T cells; test: Rescue treatment of chronically stimulated eTCR T cells: cytolytic function against HPV-expressing CaSki cells; conditions: 100 nM compound during co-culture, 2.5:1 effector:target; eTCR cells pre-stimulated with 10 or 20 μg/mL anti-Vbeta
Excerpt: Primary human CD4+ and CD8+ T cells were isolated from healthy donors by immunoaffinity-based methods. The isolated CD4+ and CD8+ T cells were combined and stimulated with an anti-CD3/anti-CD28 reagent, and then were transduced with a lentiviral vector encoding an anti-human papillomavirus 16 (anti-HPV16) eTCR. The nucleotide sequences encoding the beta chain and the alpha chain of the eTCR were separated by a sequence encoding a 2A ribosome skip element. Following transduction, the cells were cultured in media containing human serum and cytokines for 9-10 days prior to further assessment. To assess the effects of rescue treatment with Compound 17 on cytolytic function, eTCR cells were stimulated for six days using 10 μg/mL or 20 μg/mL plate-bound antibody against the TCR Vbeta chain in the absence of Compound 17. Following chronic stimulation, the eTCR-T cells were co-cultured with HPV-expressing CaSki cells at a 2.5:1 effector:target ratio in the presence of Compound 17 at 100 nM. As a control, chronically stimulated eTCR cells were co-cultured with CaSki cells in the absence of Compound 17. The CaSki cells were transduced with NucLight Red (NLR) and tumor cell number was monitored by Incucyte®.

[2] = system: anti-CD19 CAR-expressing T cells; test: Cytolytic activity of CAR-T cells concurrently treated during chronic stimulation, 3D tumor spheroids; conditions: concurrent treatment during chronic stimulation; A549.CD19 and Granta-519 spheroids, day 9
Experimental: (§1) To simulate conditions of chronic stimulation, approximately 20,000 anti-CD19 CAR-expressing T cells of a combined CAR-T cell composition produced as described in Example 1 from two healthy adult donors were incubated with 30 μg/mL of plate-bound CAR-specific anti-idiotypic antibody (see, e.g., WO2018/023100) at 37° C. for a period of seven days. During this seven-day period, engineered CAR T cells were concurrently treated with Compound 17 (0.1-1000 nM) or a vehicle control added at day 0.
(§2) To further assess activity of chronically stimulated cell, the chronically stimulated CAR-T cells that had been concurrently treated with DGKi were incubated with A549 CD19+ tumor spheroids or Granta-519 tumor spheroids to rechallenge the CAR-T cells at an effector to target ratio of 1:2 for up to 14 days. The tumor spheroids were engineered to express a red fluorescent dye to permit monitoring of tumor cell lysis by microscopy during the assay.
The antigen-specific cytolytic activity of the chronically stimulated CAR-expressing T cells was assessed by monitoring fluorescence (indicative of tumor cell lysis) over time. The tumor volume (normalized to time zero) was measured as the number of red calibrated units (RCU)×μm^2 area. […] Duplicate values for cell compositions manufactured from the two different healthy donors are shown.

[3] = system: anti-HPV16 eTCR T cells; test: Proliferation (cell counts) of chronically stimulated eTCR T cells re-stimulated with anti-Vbeta antibody; conditions: re-stimulation 7 days with 20 μg/mL anti-Vbeta, 100 nM compound
Excerpt: Primary human CD4+ and CD8+ T cells were isolated from healthy donors by immunoaffinity-based methods. The isolated CD4+ and CD8+ T cells were combined and stimulated with an anti-CD3/anti-CD28 reagent, and then were transduced with a lentiviral vector encoding an anti-human papillomavirus 16 (anti-HPV16) eTCR. The nucleotide sequences encoding the beta chain and the alpha chain of the eTCR were separated by a sequence encoding a 2A ribosome skip element. Following transduction, the cells were cultured in media containing human serum and cytokines for 9-10 days prior to further assessment. In another experiment to assess activity of the DGKi to rescue or reverse exhaustion, eTCR T cells were chronically stimulated for 6 days as described above in the absence of Compound 17. […] As a control, chronically stimulated eTCR T cells were re-stimulated in the absence of Compound 17 for 7 days. At the end of the 7 day re-stimulation, cell counts were determined. […] As expected, in the absence of treatment with Compound 17, there was an overall reduction in the ability of chronically stimulated T cells to proliferate compared to fresh eTCR T cells (compare conditions (1) and (3)).

[4] = system: anti-CD19 CAR-expressing T cells; test: Cytokine production (MSD) in co-culture of CAR-T cells and CD19-expressing tumor cells in presence of compound; conditions: 48 hours co-culture with K562.CD19, Granta-519, Raji cells, compound present
Experimental: Supernatant was collected after 48 hours from the above co-cultures of CAR-expressing T cells and CD19-expressing tumor cells in the presence of Compound 17. Cytokine production was measured from the supernatant by meso scale discovery (MSD) analysis of the collected cell supernatants.

[5] = system: anti-CD19 CAR-expressing T cells; test: Cytokine production (MSD) of CAR-T cells concurrently treated during chronic stimulation, 3D tumor spheroids; conditions: concurrent treatment during chronic stimulation; five days 3D co-culture with A549.CD19 and Granta-519 spheroids
Experimental: as §1, §2
Supernatant was collected at day 5 from the above tumor spheroid cultures with chronically stimulated CAR-expressing T cells. Cytokine production was measured from the supernatant by meso scale discovery (MSD) analysis of the collected cell supernatants. […] Duplicate values for cell compositions manufactured from the two different healthy donors are shown.

[6] = system: anti-CD19 CAR-expressing T cells; test: Cytolytic activity of CAR-T cells concurrently treated during chronic stimulation, 2D re-challenge with CD19-expressing lymphoma cells; conditions: concurrent treatment during chronic stimulation; 2D re-challenge with K562.CD19, Granta-519, Raji without compound; higher concentrations
Experimental: as §1
Stimulated CAR T cells were then re-challenged with CD19-expressing tumor cells or tumor spheroids in the absence of Compound 17, and cytolytic activity and cytokine production were assessed.
To assess cytolytic function, the stimulated CAR-T cell composition was co-cultured with various CD19-expressing lymphoma cells at a 2.5:1 effector:target ratio. The tumor cells were engineered to express NucLight Red (NLR) and tumor cell number was monitored by Incucyte®. […] Duplicate values for cell compositions manufactured from the two different healthy donors are shown.

CC[C@H]1CN([C@@H](CC)c2ccc(C(F)(F)F)cc2)[C@H](CC)CN1c1nc(=O)n(C)c2ccc(C#N)nc12 [Compound 17, 4-((2S,5R)-2,5-diethyl-4-((S)-1-(4-(trifluoromethyl)phenyl)propyl)piperazin-1-yl)-1-methyl-2-oxo-1,2-dihydropyrido[3,2-d]pyrimidine-6-carbonitrile]
cytolytic function of chronically stimulated eTCR cells (CaSki tumor cell number) [1]: able to improve cytolytic function | CAR-T cell cytolytic activity (normalized tumor volume) [2]: modestly reduced the cytolytic activity | proliferation of eTCR T cells (cell counts) [3]: increased proliferation | production of IFNγ, IL-2 and TNFα in supernatant [4]: dose-dependent increase in production of all three cytokines | production of IFNγ, IL-2 and TNFα in supernatant [5]: dose-dependent increase in production of all three cytokines | CAR-T cell cytolytic activity (tumor cell number) [6]: decreased the cytolytic activity
